Earlier results in patent US4163799A, “Psychostimulant compounds” (Union Chimique Continentale U.C.C., priority 1975, dated 1979).

Conditions: caffeine, comparison in words, no test described; cited from earlier work

Cn1c(=O)c2c(ncn2C)n(C)c1=O [caffeine]
antihypnotic effect: does
